{"source": "PubChem BioAssay AID651709", "about": "(Sanford-Burnham Center for Chemical Genomics, 2012)", "target": "Probable nicotinate-nucleotide adenylyltransferase (Staphylococcus aureus (strain N315)) (UniProt P65502)", "sequence (P65502 whole entry, looked up)": "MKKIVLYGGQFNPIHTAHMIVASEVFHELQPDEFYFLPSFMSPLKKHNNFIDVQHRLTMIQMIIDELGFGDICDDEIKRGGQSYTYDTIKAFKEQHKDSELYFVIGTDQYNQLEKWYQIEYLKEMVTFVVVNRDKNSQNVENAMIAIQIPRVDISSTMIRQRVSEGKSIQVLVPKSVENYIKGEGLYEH", "test": "potency of S. aureus NadD blockers – biochemical, colorimetric, set 2, dose response (AID 651709)", "conditions": "purified S. aureus NadD, colorimetric enzyme assay", "data": [{"smiles": "C[c-]1[c-](C)[c-](C)[c-](C)[c-]1C.[Fe].c1cc2nccc(N3CCCC3)[c-]2c1", "note": "(stereo unspecified)", "values": [{"measurement": "IC50", "value": 50, "unit": "µM"}]}]}
